Results on ten compounds are retold here after patent US20130142739A1, “PROCESS FOR THE SYNTHESIS OF ISOTHIOCYANATES AND DERIVATIVES THEREOF AND USES OF SAME” (Auriga International, priority 2010, published 2013).

Structures are written as SMILES. Where two headings read alike, the source gives them in different places.

In this assay the test system is human melanocytes of the SKMel type. The assay is described as follows: Depigmentation: melanin production by melanocytes in culture, melanin content by spectrophotometry. The assay is classed as cell-based. Conditions: for Eff./Ref. to 5 μM (relative activity with respect to kojic acid at the same concentration): kojic acid = 1; for activity at 5 µM: SK-MEL3, 72 h, read-out: Resid. Pig. (%) (percentage of residual pigmentation); for residual pigmentation percentage: 100 μM. As to the method: Various synthesized molecules were tested in order to determine their depigmenting power. The idea was to evaluate the effect of each of them on the production of melanin by melanocytes maintained in a culture medium.
For these tests, 2 lines of melanocytes were cultivated, human melanocytes of the SKMel type on the one hand and a murine line of the B16F10 type on the other hand. Here, we only show the results obtained on the human line.
The melanin content was determined by spectrophotometry, after 3 days of incubation in the presence of the molecule to be tested and cell lysis.
Kojic acid, a well-known depigmenting agent is used as a reference for making a hierarchy of the results.
For each measurement, the analyses were repeated. The indicated value corresponds to the calculated average. When the experiments are repeated, the average variation coefficient of the residual pigmentation percentage is of the order of 3% (comprised between 1.5% and 6% (for 3 tests).
This list is neither exhaustive nor limiting and the same type of results was obtained for the other molecules.

[1] abbreviates: 5 μM, human line SKMel, 3 days of incubation, melanin vs control culture (cells alone).

As to `CS(=O)(=O)CCCCN=C=S`, the “Eff./Ref. to 5 μM (relative activity with respect to kojic acid at the same concentration)” value (5 μM, human line SKMel) is 15. Further, under setting [1], the activity at 5 µM stood at 54%.
For `C[S+]([O-])CCCCN=C=S` (stereo not shown), the “Eff./Ref. to 5 μM (relative activity with respect to kojic acid at the same concentration)” value (5 μM, human line SKMel) was determined as 22. Under setting [1], the activity at 5 µM came out at 34%.
On to `[O-][S+](CCCCN=C=S)c1ccccc1` (stereo not shown), for which the “Eff./Ref. to 5 μM (relative activity with respect to kojic acid at the same concentration)” value (5 μM, human line SKMel) came out at 10. Also, the activity at 5 µM under setting [1] turned out to be 71%.
In the case of `C1CCNCC1` [reference compound], the “Eff./Ref. to 5 μM (relative activity with respect to kojic acid at the same concentration)” value (5 μM, human line SKMel) worked out at 17. Under setting [1], the activity at 5 µM came to 50%.
Regarding `C1COCCN1` [reference compound], the “Eff./Ref. to 5 μM (relative activity with respect to kojic acid at the same concentration)” value (5 μM, human line SKMel) turned out to be 5. Also, the activity at 5 µM under setting [1] was 86%.
As to `O=c1cc(CO)occ1O` [kojic acid, Kojic acid, reference compound], under “5 μM, human line SKMel”, the “Eff./Ref. to 5 μM (relative activity with respect to kojic acid at the same concentration)” value turned out to be 1. The same compound registered a residual pigmentation percentage (human line SKMel) of 73%. The activity at 5 µM under setting [1] amounted to 97%.
Consider `C[S+]([O-])CCCCN` (stereo not shown) [reference compound], for which the “Eff./Ref. to 5 μM (relative activity with respect to kojic acid at the same concentration)” value (5 μM, human line SKMel) was 11. For the same compound, the activity at 5 µM under setting [1] came to 67%.
In the case of `CC(=O)CCCCN=C=S`, the “Eff./Ref. to 5 μM (relative activity with respect to kojic acid at the same concentration)” value (5 μM, human line SKMel) amounted to 5. Besides, the activity at 5 µM under setting [1] amounted to 84%.
Turning to `CC[S+]([O-])CCCCN=C=S` (stereo not shown), the “Eff./Ref. to 5 μM (relative activity with respect to kojic acid at the same concentration)” value (5 μM, human line SKMel) was found to be 12. Also, the activity at 5 µM (Homo sapiens) was 63%.
For the compound `C[S+]([O-])CCCCNC(=S)NCCCC[S+](C)[O-]` (stereo not shown) [Example 9, 1,3-bis-(4-(methylsulfinyl)butyl)-thiourea], the “Eff./Ref. to 5 μM (relative activity with respect to kojic acid at the same concentration)” value (5 μM, human line SKMel) stood at 27. Under “human line SKMel”, this compound gave a residual pigmentation percentage of 14%. Further, the activity at 5 µM under setting [1] worked out at 20%.
